In patent publication US9580390B2, “Indazole compounds as kinase inhibitors and method of treating cancer with same” (University Health Network, priority 2011, dated 2017):

How the values were obtained:
[1] = test system: ovarian cancer cells (PA-1); test: Cancer cell line growth inhibition (SRB assay); format: cell-based; settings: Homo sapiens, PA-1; read-out: Cancer Cell Line GI50 Range PA-1
Description: Breast cancer cells (MDA-MB-231), colon cancer cells (HCT116) and ovarian cancer cells (PA-1) were seeded (1000 to 4000 in 80 μl per well depending on the cell growth rate) into 96 well plates 24 hours before compound overlay. Compounds were prepared as 10 mM stock solutions in 100% DMSO which were diluted with DMEM (Dulbecco's Modified Eagle's Medium) cell growth Medium (Invitrogen, Burlington, ON, Canada) containing 10% FBS (Fetal Bovine Serum) to concentrations ranging from 50 nM to 250 μM. Aliquots (20 μl) from each concentration were overlaid to 80 μl of the pre-seeded cells in the 96 well plates to make final concentrations of 10 nM to 50 μM. The cells were cultured for 5 days before the Sulforhodamine B assay (SRB) was performed to determine the compound's cell growth inhibition activity.
Sulforhodamine B (purchased from Sigma, Oakville, ON, Canada) is a water-soluble dye that binds to the basic amino acids of the cellular proteins. Thus, colorimetric measurement of the bound dye provides an estimate of the total protein mass that is related to the cell number. the cells are fixed in situ by gently aspirating off the culture media and adding 50 μl ice cold 10% Trichloroacetic Acid (TCA) per well and incubate at 4° C. for 30-60 min. The plates are washed with H2O five times and allowed to air dry for 5 min. Addition of 50 μl 0.4% (w/v) SRB solution in 1% (v/v) acetic acid to each well and incubation for 30 min at RT completes the staining reaction. Following staining, plates are washed four times with 1% acetic acid to remove unbound dye and then allowed to air dry for 5 min. The stain is solubilized with 100 μl of 10 mM Tris pH 10.5 per well. Absorbance is read at 570 nm.
The percentage (%) of relative growth inhibition was calculated by comparing to DMSO treated only cells (100%). GI50's were determined for compounds with cytotoxic activity. The GI50 was calculated using GraphPad PRISM software (GraphPad Software, Inc., San Diego, Calif., USA).

ALK = target: T1, ALK (Homo sapiens, UniProt Q9UM73); test: Panel of 270 human kinases (Millipore); format: biochemical
T1 construct: purchased Millipore Corporation
Description: (§1) The inhibitory activity of selected compounds of the invention (A335, A405, A410, A261, A300 and A363) was evaluated against a panel of 270 different human kinase enzymes by Millipore Corporation. The % Inhibition was determined by the formula: % Inhibition=100×(1−(experimental value−background value)/(high activity control−background value)).

Aurora-B = target: T2, Aurora-B (Homo sapiens, UniProt Q96GD4); test: Panel of 270 human kinases (Millipore); format: biochemical
T2 construct: purchased Millipore Corporation
Description: as §1

JNK3 = target: T3, JNK3 (Homo sapiens, UniProt P53779); test: Panel of 270 human kinases (Millipore); format: biochemical
T3 construct: purchased Millipore Corporation
Description: as §1

MELK = target: T4, MELK (Homo sapiens, UniProt Q14680); test: Panel of 270 human kinases (Millipore); format: biochemical
T4 construct: purchased Millipore Corporation
Description: as §1

MUSK = target: T5, MUSK (Homo sapiens, UniProt O15146); test: Panel of 270 human kinases (Millipore); format: biochemical
T5 construct: purchased Millipore Corporation
T5 sequence (O15146 24-869): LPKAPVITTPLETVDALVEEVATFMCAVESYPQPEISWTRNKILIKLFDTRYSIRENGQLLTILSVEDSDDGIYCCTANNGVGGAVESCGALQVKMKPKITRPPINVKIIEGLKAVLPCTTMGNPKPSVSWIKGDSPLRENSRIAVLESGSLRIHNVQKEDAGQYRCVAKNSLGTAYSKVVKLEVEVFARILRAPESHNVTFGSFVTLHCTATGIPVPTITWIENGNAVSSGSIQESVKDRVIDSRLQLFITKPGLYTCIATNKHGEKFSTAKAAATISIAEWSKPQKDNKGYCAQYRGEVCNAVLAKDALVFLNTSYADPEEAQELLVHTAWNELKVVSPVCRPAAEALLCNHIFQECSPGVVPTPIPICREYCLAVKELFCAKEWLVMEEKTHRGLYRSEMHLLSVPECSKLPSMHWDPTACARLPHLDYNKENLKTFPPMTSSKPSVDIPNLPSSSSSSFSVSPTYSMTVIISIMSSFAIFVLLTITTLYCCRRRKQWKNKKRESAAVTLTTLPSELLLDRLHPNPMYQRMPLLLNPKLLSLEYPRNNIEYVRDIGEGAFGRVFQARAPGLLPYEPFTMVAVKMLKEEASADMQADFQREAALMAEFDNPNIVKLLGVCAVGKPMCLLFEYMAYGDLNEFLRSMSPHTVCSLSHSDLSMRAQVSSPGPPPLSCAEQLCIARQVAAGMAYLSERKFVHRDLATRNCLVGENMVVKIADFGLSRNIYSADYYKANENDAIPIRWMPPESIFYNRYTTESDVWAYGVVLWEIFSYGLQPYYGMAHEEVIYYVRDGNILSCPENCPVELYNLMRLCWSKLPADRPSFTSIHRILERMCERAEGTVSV
Description: as §1

Met(Y1248C) = target: T6, Met(Y1248C) (Homo sapiens, UniProt P08581, Y1230C); test: Panel of 270 human kinases (Millipore); format: biochemical
T6 construct: purchased Millipore Corporation
Description: as §1

cKit (V560G) = target: T7, cKit (V560G) (Homo sapiens, UniProt P10721, V560G); test: Panel of 270 human kinases (Millipore); format: biochemical
T7 construct: purchased Millipore Corporation
Description: as §1

T6 sequence (P08581 25-1408 isoform P08581-2 Y1248C limits assumed): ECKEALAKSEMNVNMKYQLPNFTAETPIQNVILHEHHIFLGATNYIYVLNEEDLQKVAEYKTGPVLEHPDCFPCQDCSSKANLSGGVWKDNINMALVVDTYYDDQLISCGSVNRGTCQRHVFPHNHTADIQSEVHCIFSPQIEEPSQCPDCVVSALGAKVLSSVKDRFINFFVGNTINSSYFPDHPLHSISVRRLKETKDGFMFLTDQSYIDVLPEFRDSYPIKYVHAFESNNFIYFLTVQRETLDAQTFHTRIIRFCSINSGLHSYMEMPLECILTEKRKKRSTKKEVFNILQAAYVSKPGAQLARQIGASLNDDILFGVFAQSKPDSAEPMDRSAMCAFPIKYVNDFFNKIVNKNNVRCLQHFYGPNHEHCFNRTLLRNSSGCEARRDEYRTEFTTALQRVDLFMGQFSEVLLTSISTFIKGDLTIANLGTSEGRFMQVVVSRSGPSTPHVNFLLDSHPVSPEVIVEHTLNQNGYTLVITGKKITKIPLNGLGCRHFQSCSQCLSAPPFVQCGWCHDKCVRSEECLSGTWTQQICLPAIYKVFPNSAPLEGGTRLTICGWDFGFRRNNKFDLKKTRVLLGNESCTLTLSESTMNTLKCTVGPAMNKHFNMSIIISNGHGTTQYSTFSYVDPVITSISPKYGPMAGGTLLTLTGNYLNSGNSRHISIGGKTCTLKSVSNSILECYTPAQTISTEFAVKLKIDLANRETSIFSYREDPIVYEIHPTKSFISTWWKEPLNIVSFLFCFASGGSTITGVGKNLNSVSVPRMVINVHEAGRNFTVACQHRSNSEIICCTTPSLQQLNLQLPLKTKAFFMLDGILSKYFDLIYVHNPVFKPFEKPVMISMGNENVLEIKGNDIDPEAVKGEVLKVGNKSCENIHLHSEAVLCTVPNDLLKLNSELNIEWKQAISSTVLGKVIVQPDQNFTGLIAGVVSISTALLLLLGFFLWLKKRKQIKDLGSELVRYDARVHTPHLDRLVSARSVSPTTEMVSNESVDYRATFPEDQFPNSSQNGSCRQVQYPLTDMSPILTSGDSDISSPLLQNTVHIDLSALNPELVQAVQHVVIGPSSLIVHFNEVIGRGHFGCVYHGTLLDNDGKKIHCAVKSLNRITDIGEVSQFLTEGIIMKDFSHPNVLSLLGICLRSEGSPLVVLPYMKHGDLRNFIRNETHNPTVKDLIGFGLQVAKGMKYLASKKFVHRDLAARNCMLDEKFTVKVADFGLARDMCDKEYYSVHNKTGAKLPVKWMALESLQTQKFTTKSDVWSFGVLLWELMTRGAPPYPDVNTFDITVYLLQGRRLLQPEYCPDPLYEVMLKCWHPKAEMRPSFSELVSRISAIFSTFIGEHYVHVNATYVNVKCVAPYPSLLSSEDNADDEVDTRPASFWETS
T3 sequence (P53779 whole entry): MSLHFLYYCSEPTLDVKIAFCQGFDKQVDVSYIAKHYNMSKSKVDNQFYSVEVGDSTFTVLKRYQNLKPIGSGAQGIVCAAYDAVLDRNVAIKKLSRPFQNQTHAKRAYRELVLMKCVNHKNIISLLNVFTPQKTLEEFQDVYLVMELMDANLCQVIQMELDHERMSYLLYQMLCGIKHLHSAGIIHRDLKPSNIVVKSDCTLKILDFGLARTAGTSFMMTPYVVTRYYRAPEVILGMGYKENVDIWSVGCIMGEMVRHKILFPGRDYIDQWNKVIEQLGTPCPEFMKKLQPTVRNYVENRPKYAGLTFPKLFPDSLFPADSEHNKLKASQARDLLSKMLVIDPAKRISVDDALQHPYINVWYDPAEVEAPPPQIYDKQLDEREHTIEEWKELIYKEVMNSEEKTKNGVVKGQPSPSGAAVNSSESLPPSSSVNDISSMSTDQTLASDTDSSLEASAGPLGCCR
T1 sequence (Q9UM73 19-1620): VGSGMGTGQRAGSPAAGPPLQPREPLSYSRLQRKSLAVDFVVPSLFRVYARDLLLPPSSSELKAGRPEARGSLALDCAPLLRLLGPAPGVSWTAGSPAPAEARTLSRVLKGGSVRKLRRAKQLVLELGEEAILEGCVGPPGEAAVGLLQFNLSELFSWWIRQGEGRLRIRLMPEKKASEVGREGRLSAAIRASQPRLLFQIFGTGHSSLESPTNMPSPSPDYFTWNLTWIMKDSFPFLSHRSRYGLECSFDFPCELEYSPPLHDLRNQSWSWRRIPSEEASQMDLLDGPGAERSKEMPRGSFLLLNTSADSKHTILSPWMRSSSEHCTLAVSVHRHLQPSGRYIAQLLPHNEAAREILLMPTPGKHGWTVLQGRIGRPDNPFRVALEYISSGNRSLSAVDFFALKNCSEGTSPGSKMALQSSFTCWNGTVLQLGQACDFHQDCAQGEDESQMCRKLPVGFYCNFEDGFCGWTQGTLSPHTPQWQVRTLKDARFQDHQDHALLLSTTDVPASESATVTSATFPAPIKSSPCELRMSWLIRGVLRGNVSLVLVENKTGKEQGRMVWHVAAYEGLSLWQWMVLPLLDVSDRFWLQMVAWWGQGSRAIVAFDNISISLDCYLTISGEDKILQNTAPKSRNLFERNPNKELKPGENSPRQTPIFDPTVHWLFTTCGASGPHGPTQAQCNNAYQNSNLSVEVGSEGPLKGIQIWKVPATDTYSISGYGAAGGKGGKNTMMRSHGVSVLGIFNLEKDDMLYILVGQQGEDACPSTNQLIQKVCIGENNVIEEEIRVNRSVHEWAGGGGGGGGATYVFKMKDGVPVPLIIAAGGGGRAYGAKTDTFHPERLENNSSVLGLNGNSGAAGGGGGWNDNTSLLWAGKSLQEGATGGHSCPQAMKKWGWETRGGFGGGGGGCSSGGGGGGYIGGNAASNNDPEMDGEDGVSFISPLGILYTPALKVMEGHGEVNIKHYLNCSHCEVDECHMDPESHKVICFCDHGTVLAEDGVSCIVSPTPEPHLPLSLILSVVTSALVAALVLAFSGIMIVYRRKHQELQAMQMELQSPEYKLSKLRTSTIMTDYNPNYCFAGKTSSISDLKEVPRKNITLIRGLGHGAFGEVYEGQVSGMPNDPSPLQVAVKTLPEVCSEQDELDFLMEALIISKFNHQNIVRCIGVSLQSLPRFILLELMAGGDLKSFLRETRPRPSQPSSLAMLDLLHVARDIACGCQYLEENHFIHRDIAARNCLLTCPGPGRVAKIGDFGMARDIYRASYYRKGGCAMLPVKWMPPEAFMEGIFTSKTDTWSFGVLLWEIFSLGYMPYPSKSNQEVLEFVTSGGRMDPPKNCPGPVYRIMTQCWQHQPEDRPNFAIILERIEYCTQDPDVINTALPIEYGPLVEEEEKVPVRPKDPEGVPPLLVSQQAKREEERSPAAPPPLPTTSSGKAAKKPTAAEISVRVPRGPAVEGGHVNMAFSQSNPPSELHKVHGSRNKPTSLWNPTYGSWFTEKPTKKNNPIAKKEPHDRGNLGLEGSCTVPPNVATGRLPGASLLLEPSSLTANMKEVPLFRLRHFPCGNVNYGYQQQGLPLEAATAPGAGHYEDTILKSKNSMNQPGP
T7 sequence (P10721 26-976 V560G): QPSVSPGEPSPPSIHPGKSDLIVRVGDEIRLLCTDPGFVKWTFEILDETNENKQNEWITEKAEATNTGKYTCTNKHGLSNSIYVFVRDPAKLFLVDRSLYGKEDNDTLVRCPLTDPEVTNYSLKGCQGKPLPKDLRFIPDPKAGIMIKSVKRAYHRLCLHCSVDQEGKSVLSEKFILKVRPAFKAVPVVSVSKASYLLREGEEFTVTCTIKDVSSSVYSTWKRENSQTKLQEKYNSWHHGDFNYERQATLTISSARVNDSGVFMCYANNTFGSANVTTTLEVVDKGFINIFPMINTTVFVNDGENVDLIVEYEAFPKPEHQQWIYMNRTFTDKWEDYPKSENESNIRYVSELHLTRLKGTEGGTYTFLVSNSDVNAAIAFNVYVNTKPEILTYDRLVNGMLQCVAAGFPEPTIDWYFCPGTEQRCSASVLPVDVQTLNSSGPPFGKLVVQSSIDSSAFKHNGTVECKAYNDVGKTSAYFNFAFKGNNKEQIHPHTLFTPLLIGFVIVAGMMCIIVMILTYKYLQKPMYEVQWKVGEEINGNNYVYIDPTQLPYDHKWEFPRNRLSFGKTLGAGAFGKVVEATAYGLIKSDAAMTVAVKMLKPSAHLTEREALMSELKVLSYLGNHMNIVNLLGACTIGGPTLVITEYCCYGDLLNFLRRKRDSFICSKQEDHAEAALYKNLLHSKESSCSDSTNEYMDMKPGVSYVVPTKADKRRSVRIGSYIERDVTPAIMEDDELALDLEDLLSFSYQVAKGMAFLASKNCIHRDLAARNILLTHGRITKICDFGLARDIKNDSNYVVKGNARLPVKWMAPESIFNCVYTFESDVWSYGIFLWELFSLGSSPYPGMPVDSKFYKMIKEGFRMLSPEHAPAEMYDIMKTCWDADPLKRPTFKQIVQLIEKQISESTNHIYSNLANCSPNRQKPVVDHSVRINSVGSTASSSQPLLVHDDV
T4 sequence (Q14680 whole entry): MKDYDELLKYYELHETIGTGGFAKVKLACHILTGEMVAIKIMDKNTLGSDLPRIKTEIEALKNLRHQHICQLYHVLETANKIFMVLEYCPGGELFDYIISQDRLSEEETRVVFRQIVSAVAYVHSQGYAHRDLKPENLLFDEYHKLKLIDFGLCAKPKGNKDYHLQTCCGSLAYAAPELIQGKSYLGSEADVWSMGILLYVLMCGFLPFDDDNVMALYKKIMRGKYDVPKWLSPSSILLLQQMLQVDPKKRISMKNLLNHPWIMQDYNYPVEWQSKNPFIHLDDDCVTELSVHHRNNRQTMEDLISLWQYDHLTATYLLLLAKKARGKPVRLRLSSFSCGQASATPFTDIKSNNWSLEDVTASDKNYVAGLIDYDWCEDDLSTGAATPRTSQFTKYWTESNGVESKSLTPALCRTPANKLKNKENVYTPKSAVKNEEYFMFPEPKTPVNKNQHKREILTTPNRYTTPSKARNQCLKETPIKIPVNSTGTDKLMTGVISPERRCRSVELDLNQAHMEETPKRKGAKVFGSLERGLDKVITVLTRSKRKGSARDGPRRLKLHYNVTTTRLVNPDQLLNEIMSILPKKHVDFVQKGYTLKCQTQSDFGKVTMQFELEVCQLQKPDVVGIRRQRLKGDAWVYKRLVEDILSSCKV

Structure (SMILES) | GI50 [1] [nM] | inhibition at 1 µM (ALK) [%] | inhibition at 1 µM (Aurora-B) [%] | inhibition at 1 µM (JNK3) [%] | inhibition at 1 µM (MELK) [%] | inhibition at 1 µM (MUSK) [%] | inhibition at 1 µM (Met(Y1248C)) [%] | inhibition at 1 µM (cKit (V560G)) [%]
CC(C)C[C@@H](NC(=O)c1ccc2[nH]nc(-c3ccc(N4CCN(C5COC5)CC4)cc3)c2c1)c1ccccc1Cl [Example A300, (R)-N-(1-(2-chlorophenyl)-3-methylbutyl)-3-(4-(4-(oxetan-3-yl)piperazin-1-yl)phenyl)-1H-indazole-5-carboxamide] | < 100 | 0 | 69 | 48 | 51 | 54 | 40 | 76
CC(C)[C@H](NC(=O)c1ccc2[nH]nc(-c3ccc(OC4CC5CCC(C4)N5C4COC4)cc3)c2c1)c1ccccc1Cl (stereo partly shown) [Example A335] | < 100 | 7 | 87 | 85 | 97 | 91 | 42 | 66
